Results on 10 molecules are retold here after US20260183304A1, “COMBINATION OF A TYROSINE KINASE INHIBITOR AND A PRO-INFLAMMATORY AGENT FOR TREATING CANCER” (MDX Management LLC, priority 2022, published 2026).

One series relates to SIRPα. Nature of the series: SIRPα ITIMs phosphorylation and SHP-1 association in macrophages activated by proinflammatory stimuli. It is filed as cell-based. To be noted: macrophage activation by proinflammatory stimuli or cancer therapies. From the text:
As shown, proinflammatory stimuli (TLR agonists, proinflammatory cytokines IL-1β, IL-6, IL-12, IL-17, IL-18, TNFα, IFNγ, etc., and cancer therapies) induce SIRPα ITIMs phosphorylation and exclusive association of SHP-1 (not SHP-2). Anti-inflammatory cytokine stimulation also induces SIRPα ITIMs phosphorylation but association with SHP-2.

The test system of series [1] is macrophages. Nature of the series: Macrophage proinflammatory cytokine production with αTLR and cancer cell ligation. Format: cell-based, human and murine. The settings on record: αTLR-induced, in presence of cancer cell ligation. Here is the method:
(§1) After incubation for 15 minutes at 37° C., cells were gently washed to remove the majority of SW620, followed by lysis of macrophage using Hank's buffer (pH 7.2) containing 1% Triton and 1 mM PMSF. Protein tyrosine phosphatase (PTP) activity was assayed with […] Hank's buffer at 37° C.
(§2) In vitro assays. Macrophage response to αTLR was assayed in the presence of cancer cell ligation and with or without TK inhibitor. Macrophage SHP-1 activity (PTP activity), macrophage expression of antigen presentation machinery and proinflammatory cytokines were assayed.
(§3) The same in vitro macrophage stimulation in the present of cancer cell ligation experimental system as in Example 1 was used.

The next series concerns LLC lung cancer. Nature of the series: LLC tumor treatment and TME analyses. Format: in vivo, mice. The settings on record: combined with αTLR. The protocol:
Three types of solid tumors were tested: 1) MC38 colorectal carcinoma, 2) KPC pancreatic ductal adenocarcinoma, and 3) LLC lung cancer. Tumors were subcutaneously engrafted (s.c.), and treatments started when palpable tumors formed >=200 mm^3. […] In most experiments, TKi and αTLR agonist were together suspended in 500 μl PBS and administered via s.c. at a location distant form tumor. The intermittent treatment scheme was designed to administrate the first cycle, 2× pulse administrations (d1 and d2), an intermittent period (3-7 days), followed by a second cycle treatment.
In vivo tests for anti-tumor efficacy.

A further series has as its system SIRPα and PirB. Nature of the series: iR phosphorylation and binding to SHP-1 in bone-marrow-derived macrophages. To be noted: TLR agonist- and cancer ligation-induced, murine bone-marrow-derived macrophages.
Series [2] deals with macrophages. Nature of the series: Macrophage expression of cell surface antigen presentation machinery with αTLR and cancer cell ligation. Format: cell-based, human and murine. To be noted: αTLR-induced, in presence of cancer cell ligation. Here is the method: as §1, §2, §3
For series [3], the system named is macrophage SHP-1 activity. Description: Macrophage SHP-1 (PTP) activity induced by αTLR and cancer cell ligation. It is filed as cell-based, human. To be noted: induced by αTLR (CpG, PolyIC, R848) and SW620 cancer cell ligation. Here is the method: . After incubation for 15 minutes at 37° C., cells were gently washed to remove the majority of SW620, followed by lysis of macrophage using Hank's buffer (pH 7.2) containing 1% Triton and 1 mM PMSF. Protein tyrosine phosphatase (PTP) activity was assayed with […] Hank's buffer at 37° C.
as §2, §3
Specifically, an in vitro macrophage functional assay was set up in the presence of cancer cell (SW620) ligation of macrophage iRs. […]. In vivo anti-tumor efficacies with the combination of αTLR were shown in (FIG. 9C).

Series [4] has as its system MC38, KPC and LLC tumor models. Nature of the series: Syngeneic murine tumor models, TKi alone or with proinflammatory activators. Format: in vivo, mice. To be noted: for anti-tumor efficacy, alone/monotherapy: TKi alone.
Series [5] deals with malignant melanoma and advanced malignancies. The settings on record: Phase I, cited from earlier work.
For series [6], the system named is TLR7/8 overexpressing pancreatic cancer cell line. The settings on record: R848-stimulation; cited from earlier work.
The next series deals with c-Src (Homo sapiens, UniProt P12931). The settings on record: information vendor provided; cited from earlier work.
Sequence of c-Src (P12931 whole entry): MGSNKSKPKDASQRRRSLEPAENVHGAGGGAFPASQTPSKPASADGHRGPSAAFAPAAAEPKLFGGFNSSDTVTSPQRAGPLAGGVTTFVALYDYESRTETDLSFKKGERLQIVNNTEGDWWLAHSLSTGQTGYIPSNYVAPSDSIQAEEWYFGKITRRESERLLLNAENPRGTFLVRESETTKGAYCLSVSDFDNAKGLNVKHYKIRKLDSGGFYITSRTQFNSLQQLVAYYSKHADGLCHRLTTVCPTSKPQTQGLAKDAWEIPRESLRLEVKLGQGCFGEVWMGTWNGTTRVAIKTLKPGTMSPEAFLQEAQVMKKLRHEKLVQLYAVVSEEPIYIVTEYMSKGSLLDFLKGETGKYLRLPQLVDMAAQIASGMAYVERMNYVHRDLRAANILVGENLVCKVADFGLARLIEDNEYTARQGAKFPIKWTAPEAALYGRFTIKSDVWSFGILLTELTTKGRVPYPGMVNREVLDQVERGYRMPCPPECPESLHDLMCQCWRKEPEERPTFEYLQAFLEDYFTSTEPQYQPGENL
Another series addresses Lyn (Homo sapiens, UniProt P07948). The settings on record: information vendor provided; cited from earlier work.
A further series concerns the target Lck (Homo sapiens, UniProt P06239). To be noted: information vendor provided; cited from earlier work.

Sequence of Lck (P06239 whole entry, species assumed): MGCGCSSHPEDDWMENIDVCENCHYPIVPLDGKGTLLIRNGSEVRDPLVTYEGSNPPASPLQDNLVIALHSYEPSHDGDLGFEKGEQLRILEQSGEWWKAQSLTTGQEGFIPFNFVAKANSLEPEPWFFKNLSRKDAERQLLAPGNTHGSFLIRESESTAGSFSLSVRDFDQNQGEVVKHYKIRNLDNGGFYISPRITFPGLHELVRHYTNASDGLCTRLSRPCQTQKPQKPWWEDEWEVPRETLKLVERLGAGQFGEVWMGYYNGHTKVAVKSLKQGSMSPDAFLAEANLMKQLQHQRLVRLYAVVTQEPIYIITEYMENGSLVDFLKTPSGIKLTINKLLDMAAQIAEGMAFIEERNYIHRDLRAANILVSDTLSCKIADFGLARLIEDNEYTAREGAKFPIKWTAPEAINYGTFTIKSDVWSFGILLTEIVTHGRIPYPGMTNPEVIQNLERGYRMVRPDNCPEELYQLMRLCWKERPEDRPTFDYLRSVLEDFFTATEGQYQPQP
Sequence of Lyn (P07948 whole entry, species assumed): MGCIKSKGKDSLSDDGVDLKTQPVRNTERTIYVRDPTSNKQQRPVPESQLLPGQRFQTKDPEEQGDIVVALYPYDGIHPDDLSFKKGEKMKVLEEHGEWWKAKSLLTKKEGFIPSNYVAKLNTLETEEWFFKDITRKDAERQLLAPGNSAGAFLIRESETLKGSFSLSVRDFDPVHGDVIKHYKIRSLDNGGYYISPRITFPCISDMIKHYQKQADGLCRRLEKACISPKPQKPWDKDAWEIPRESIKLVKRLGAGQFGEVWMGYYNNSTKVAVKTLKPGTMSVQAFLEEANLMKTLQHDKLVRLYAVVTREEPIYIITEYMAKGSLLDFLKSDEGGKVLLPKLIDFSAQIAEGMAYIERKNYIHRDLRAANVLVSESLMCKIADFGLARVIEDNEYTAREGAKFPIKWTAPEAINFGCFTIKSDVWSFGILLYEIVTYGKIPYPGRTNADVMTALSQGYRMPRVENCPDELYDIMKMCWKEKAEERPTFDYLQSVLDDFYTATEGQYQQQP

As to `Cc1ccc(-c2nn(C(C)(C)C)c3ncnc(N)c23)cc1` [PP1], the “SIRPα cytoplasmic ITIMs phosphorylation and SIRPα association with SHP-1” value with SIRPα is “diminished”.
With `Cc1nc(Nc2ncc(C(=O)Nc3c(C)cccc3Cl)s2)cc(N2CCN(CCO)CC2)n1` [Dasatinib, N-(2-chloro-6-methylphenyl)-2-[[6-[4-(2-hydroxyethyl)-1-piperazinyl]-2-methyl-4-pyrimidinyl]amino]-5-thiazole carboxamide monohydrate], the “production of proinflammatory cytokines (TNFα, IL-6, CXCL1)” value (shortened to “production of proinflammatory cytokines”) with macrophages [1] was “marked increases”. In addition, in the series on LLC lung cancer (LLC tumors, 3-day post treatment, various doses), the “TME immune populations (CD8+ T cells, NK cells, macrophages, MDSC)” value was “dose-dependent effect of elevating CD8+ T cells and NK cells and reducing macrophages and MDSC”. Further, the “iR phosphorylation and binding to SHP-1” value with SIRPα and PirB is listed as “depleted”. The “expression of cell surface antigen presentation machinery” value (“expression” below) in the series on macrophages [2] is on record as “marked increases”. Further, the “macrophage SHP-1 activity (PTP activity)” value in series [3] was “dose-dependently diminished”. Further, in series [4], the “anti-tumor efficacy, alone/monotherapy” value is “not effective”. The angiogenesis in tumors result in series [4] (mouse, in vivo) was “inhibits”.
As to `O.O.O.O.O.O.O.O.O.O=C([O-])[C@@H]1[O][Sb]2([O-])([O][Sb]34([OH])[O][C@H]([C@H](O)CO)[C@H]([O]3)[C@H](C(=O)[O-])[O]4)[O][C@H]([C@H](O)CO)[C@@H]1[O]2.[Na+].[Na+].[Na+]` [SSG, sodium stibogluconate], the “effect against tumor development” value in series [5] (in combination with interferons followed or not by chemotherapy) was “no effect”. Besides, the “patients with most common toxic side-effects” value in series [5] is on record as “up to 68%”.
Take `CCOCc1nc2c(N)nc3ccccc3c2n1CC(C)(C)O` [R848]: in series [6], the cell proliferation result was “increased” and the chemosensitivity entry is listed as “reduced”.
For `CC(C)CCC[C@@H](C)[C@H]1CC[C@H]2[C@@H]3CCC4C[C@H](N)CC[C@]4(C)[C@H]3CC[C@]12C` (stereo partly drawn) [3Ac], in the series with LLC lung cancer, the “suppression of LLC tumor” value is given as “not”.
`CC(C)(C)n1nc(-c2ccc(Cl)cc2)c2c(N)ncnc21` [PP2]: the “SIRPα cytoplasmic ITIMs phosphorylation and SIRPα association with SHP-1” value with SIRPα was “diminished”.
As a reminder, the IC50 is the midpoint of a concentration-inhibition curve. As to `Cc1nc(Nc2ncc(C(=O)Nc3cc(NC(=O)c4cccc(C(F)(F)F)c4)ccc3C)s2)cc(N2CCN(CCO)CC2)n1` [UM-164], the “production of proinflammatory cytokines” value in the series with macrophages [1] is recorded as “Neither UM164 nor R406 enabled”. The “suppression of LLC tumor” value in the series on LLC lung cancer is “not”. In addition, the IC50 on c-Src was 2.7 nM. Also, the “expression” value in the series on macrophages [2] is on record as “elevated”. For the same molecule, the “macrophage SHP-1 activity (PTP activity)” value in [3] is recorded as “capability of diminishing”.
With `COc1cc(Nc2ncc(F)c(Nc3ccc4c(n3)NC(=O)C(C)(C)O4)n2)cc(OC)c1OC` [R406], in the series with macrophages [1], the “production of proinflammatory cytokines” value is “Neither UM164 nor R406 enabled”. In addition, in the series on LLC lung cancer, the “intratumoral CD8+ T cell expansion” value was “induced intratumoral CD8+ T cell expansion”, the “intratumoral macrophage antigen presentation” value is “induced intratumoral macrophages for antigen presentation” and the “suppression of LLC tumor” value is “effectively suppressed”. In addition, in the series with macrophages [2], the “expression” value is recorded as “elevated”. Further, the “macrophage SHP-1 activity (PTP activity)” value in series [3] is recorded as “capability of diminishing”.
With `CN1CCN([C@H]2CC[C@H](n3cc(-c4ccc(Oc5ccccc5)cc4)c4c(N)ncnc43)CC2)CC1` [RK-20449, 7-((1R,4R)-4-(4-methylpiperazin-1-yl)cyclohexyl)-5-(4-phenoxyphenyl)-7H-pyrrolo[2,3-d]pyrimidin-4-amine], the “production of proinflammatory cytokines” value in the series on macrophages [1] was “marked increases”. In addition, the IC50 at Lyn and on Lck was less than 3 nM throughout. The “iR phosphorylation and binding to SHP-1” value in the series with SIRPα and PirB is listed as “depleted”. In the series with macrophages [2], the “expression” value was “marked increases”. In addition, in series [3], the “macrophage SHP-1 activity (PTP activity)” value was “dose-dependently diminished”. Moreover, the “anti-tumor efficacy, alone/monotherapy” value in series [4] is “not effective”.
As for `C/C(O)=C(\C#N)C(=O)Nc1cc(Br)ccc1Br` [LFMA-13], the “SIRPα cytoplasmic ITIMs phosphorylation and SIRPα association with SHP-1” value in the series with SIRPα is on record as “not”.
